Results on 16 molecules are retold here after EP4678638A1, “NEW E3 UBIQUITIN LIGASE LIGAND, PROTEIN DEGRADATION AGENT AND USE THEREOF” (priority 2023, dated 2024).

Structures are written as SMILES. pIC50: −log10 of the molar value.

In one test the test system is H1975. The test can be described thus: CCK-8 proliferation, NCI-H1975 (H1975). It counts as cell-based, Human. To be noted: Homo sapiens, NCI-H1975; CCK-8; 96 hours; read-out: Inhibitory activity (IC50) on tumor cell proliferation, H1975. As for the experimental part: The tumor cells used herein were cultured in a cell culture medium listed in table A1 at 37°C in an incubator with 5% CO2. Prior to experimentation, all cell lines used were correctly identified by STR profiling, and tested negative for mycoplasma contamination using a mycoplasma detection kit through routine screenings. Table A1. Tumor cells and cell culture medium used in the present disclosure
IC50 values of the compounds of the present disclosure (including the compounds in Table 1, and compounds of examples) were measured using the Meilun Cell Counting Kit-8 kit from Dalian Meilun Biotech Co., Ltd. Assay details are as follows: tumor cells were seeded in a 96-well plate at a density listed in Table A2. After 24h, 100 µL of the inoculated cells were treated with 0.5µL of the compounds of the present disclosure (including the compounds in Tables 1 and 2, and compounds of examples) at 10 different successively decreasing concentrations (starting at the highest concentration of 10µM; 5-fold serial dilutions). After the cells were treated with the compounds of the present disclosure for a period of time, the cell viability detection reagent was added to the culture medium for cell viability assessment according to the instructions provided with the CCK-8 kit. […] The growth inhibition of the compounds of the present disclosure on cells was plotted by Prism Graphpad software, and the IC50 values of the compounds of the present disclosure were calculated therefrom. […] Seeding protocol and treatment time for tumor cells
Consider `CN(Cc1cccc(N2CCC(=O)NC2=O)c1)C1CCN(c2ccc(-c3cc(F)c4c(c3)C(=O)N(C(C(=O)Nc3nccs3)c3ncn5c3CCC5)C4)cc2)CC1` (stereo not drawn) [GT-05281, 2-(6,7-dihydro-5H-pyrrolo[1,2-c]imidazol-1-yl)-2-(6-(4-(4-((3-(2,4-dioxotetrahydropyrimidin-1(2H)-yl)benzyl)(methyl)amino)piperidin-1-yl)phenyl)-4-fluoro-1-oxoisoindolin-2-yl)-N-(thiazol-2-yl)acetamide], for which the pIC50 was 8.00 to 9.00.
Same read-out and setting: with `O=C1CCN(c2cc(CN3C[C@H]4C[C@@H]3CN4c3ccc(-c4cc(F)c5c(c4)C(=O)N(C(C(=O)Nc4nccs4)c4ncn6c4CCC6)C5)cc3)ccn2)C(=O)N1` (stereo partly drawn) [GT-07387, 2-(6,7-dihydro-5H-pyrrolo[1,2-c]imidazol-1-yl)-2-(6-(4-((1R,4R)-5-((2-(2,4-dioxotetrahydropyrimidin-1(2H)-yl)pyridin-4-yl)methyl)-2,5-diazabicyclo[2.2.1]heptan-2-yl)phenyl)-4-fluoro-1-oxoisoindolin-2-yl)-N-(thiazol-2-yl)acetamide] the figure was 8.00 to 9.00; with `O=C1CCN(c2ccc(CN3C4CCC3CN(c3ccc(-c5cc(F)c6c(c5)C(=O)N(C(C(=O)Nc5nccs5)c5ncn7c5CCC7)C6)cc3)C4)nc2)C(=O)N1` (stereo not drawn) [GT-06255, 2-(6,7-dihydro-5H-pyrrolo[1,2-c]imidazol-1-yl)-2-(6-(4-(8-((5-(2,4-dioxotetrahydropyrimidin-1(2H)-yl)pyridin-2-yl)methyl)-3,8-diazabicyclo[3.2.1]octan-3-yl)phenyl)-4-fluoro-1-oxoisoindolin-2-yl)-N-(thiazol-2-yl)acetamide], 8.00 to 9.00.
`O=C1CCC(c2cncc(CN3CCN(c4ccc(-c5cc(F)c6c(c5)C(=O)N(C(C(=O)Nc5nccs5)c5ncn7c5CCC7)C6)cc4)CC3)c2)C(=O)N1` (stereo not drawn) [GT-07472, 2-(6,7-dihydro-5H-pyrrolo[1,2-c]imidazol-1-yl)-2-(6-(4-(4-((5-(2,6-dioxopiperidin-3-yl)pyridin-3-yl)methyl)piperazin-1-yl)phenyl)-4-fluoro-1-oxoisoindolin-2-yl)-N-(thiazol-2-yl)acetamide]: the pIC50 is 8.00 to 9.00.
Consider `O=C1CCN(c2cc(CN3CCN(c4ccc(-c5cc(F)c6c(c5)C(=O)N(C(C(=O)Nc5nccs5)c5ncn7c5CCC7)C6)cc4)CC3)ccn2)C(=O)N1` (stereo not drawn) [GT-07379, 2-(6,7-dihydro-5H-pyrrolo[1,2-c]imidazol-1-yl)-2-(6-(4-(4-((2-(2,4-dioxotetrahydropyrimidin-1(2H)-yl)pyridin-4-yl)methyl)piperazin-1-yl)phenyl)-4-fluoro-1-oxoisoindolin-2-yl)-N-(thiazol-2-yl)acetamide], for which the pIC50 was 8.00 to 9.00.
On the same count and under the same terms, as for `O=C1CCN(c2cccc(CN3CCC(N4CCN(c5ccc(-c6cc(F)c7c(c6)C(=O)N(C(C(=O)Nc6nccs6)c6ncn8c6CCC8)C7)cc5)CC4)CC3)c2)C(=O)N1` (stereo not drawn) [GT-06328, 2-(6,7-dihydro-5H-pyrrolo[1,2-c]imidazol-1-yl)-2-(6-(4-(4-(1-(3-(2,4-dioxotetrahydropyrimidin-1(2H)-yl)benzyl)piperidin-4-yl)piperazin-1-yl)phenyl)-4-fluoro-1-oxoisoindolin-2-yl)-N-(thiazol-2-yl)acetamide], the figure is 8.00 to 9.00; as for `CN(Cc1cccnc1NC1CCC(=O)NC1=O)C1CCN(c2ccc(-c3cc(F)c4c(c3)C(=O)N(C(C(=O)Nc3nccs3)c3ncn5c3CCC5)C4)cc2)CC1` (stereo not drawn) [GT-07561, 2-(6,7-dihydro-5H-pyrrolo[1,2-c]imidazol-1-yl)-2-(6-(4-(4-(((2-((2,6-dioxopiperidin-3-yl)amino)pyridin-3-yl)methyl)(methyl)amino)piperidin-1-yl)phenyl)-4-fluoro-1-oxoisoindolin-2-yl)-N-(thiazol-2-yl)acetamide], 8.00 to 9.00.
The same measure, in the same setting: as for `CN(Cc1ccc(C2CCC(=O)NC2=O)cn1)C1CCN(c2ccc(-c3cc(F)c4c(c3)C(=O)N(C(C(=O)Nc3nccs3)c3ncn5c3CCC5)C4)cc2)CC1` (stereo not drawn) [GT-07385, 2-(6,7-dihydro-5H-pyrrolo[1,2-c]imidazol-1-yl)-2-(6-(4-(4-(((5-(2,6-dioxopiperidin-3-yl)pyridin-2-yl)methyl)(methyl)amino)piperidin-1-yl)phenyl)-4-fluoro-1-oxoisoindolin-2-yl)-N-(thiazol-2-yl)acetamide], the figure is 8.00 to 9.00; as for `O=C1CCN(c2ccc(CN3C[C@H]4C[C@@H]3CN4c3ccc(-c4cc(F)c5c(c4)C(=O)N(C(C(=O)Nc4nccs4)c4ncn6c4CCC6)C5)cc3)cn2)C(=O)N1` (stereo partly drawn) [GT-06191, 2-(6,7-dihydro-5H-pyrrolo[1,2-c]imidazol-1-yl)-2-(6-(4-((1R,4R)-5-((6-(2,4-dioxotetrahydropyrimidin-1(2H)-yl)pyridin-3-yl)methyl)-2,5-diazabicyclo[2.2.1]heptan-2-yl)phenyl)-4-fluoro-1-oxoisoindolin-2-yl)-N-(thiazol-2-yl)acetamide], 8.00 to 9.00.
On to `O=C1CCC(c2cc(CN3CCN(c4ccc(-c5cc(F)c6c(c5)C(=O)N(C(C(=O)Nc5nccs5)c5ncn7c5CCC7)C6)cc4)CC3)ccn2)C(=O)N1` (stereo not drawn) [GT-07392, 2-(6,7-dihydro-5H-pyrrolo[1,2-c]imidazol-1-yl)-2-(6-(4-(4-((2-(2,6-dioxopiperidin-3-yl)pyridin-4-yl)methyl)piperazin-1-yl)phenyl)-4-fluoro-1-oxoisoindolin-2-yl)-N-(thiazol-2-yl)acetamide], for which the pIC50 is 8.00 to 9.00.
For the molecule `O=C1CCC(c2cnc(F)c(CN3CCN(c4ccc(-c5cc(F)c6c(c5)C(=O)N(C(C(=O)Nc5nccs5)c5ncn7c5CCC7)C6)cc4)CC3)c2)C(=O)N1` (stereo not drawn) [GT-07490, 2-(6,7-dihydro-5H-pyrrolo[1,2-c]imidazol-1-yl)-2-(6-(4-(4-((5-(2,6-dioxopiperidin-3-yl)-2-fluoropyridin-3-yl)methyl)piperazin-1-yl)phenyl)-4-fluoro-1-oxoisoindolin-2-yl)-N-(thiazol-2-yl)acetamide], the pIC50 was 8.00 to 9.00.
Same read-out and setting: with `CN(Cc1ccc(C2CCC(=O)NC2=O)cc1)C1CCN(c2ccc(-c3cc(F)c4c(c3)C(=O)N(C(C(=O)Nc3nccs3)c3ncn5c3CCC5)C4)cc2)CC1` (stereo not drawn) [GT-05218, 2-(6,7-dihydro-5H-pyrrolo[1,2-c]imidazol-1-yl)-2-(6-(4-(4-((4-(2,6-dioxopiperidin-3-yl)benzyl)(methyl)amino)piperidin-1-yl)phenyl)-4-fluoro-1-oxoisoindolin-2-yl)-N-(thiazol-2-yl)acetamide] the figure was 8.00 to 9.00.
Still for that read-out and setting: as for `CN(Cc1ccc(N2CCC(=O)NC2=O)cn1)C1CCN(c2ccc(-c3cc(F)c4c(c3)C(=O)N(C(C(=O)Nc3nccs3)c3ncn5c3CCC5)C4)cc2)CC1` (stereo not drawn) [GT-05282, 2-(6,7-dihydro-5H-pyrrolo[1,2-c]imidazol-1-yl)-2-(6-(4-(4-(((5-(2,4-dioxotetrahydropyrimidin-1(2H)-yl)pyridin-2-yl)methyl)(methyl)amino)piperidin-1-yl)phenyl)-4-fluoro-1-oxoisoindolin-2-yl)-N-(thiazol-2-yl)acetamide], the figure is 8.00 to 9.00; as for `O=C1CCC(c2ccc(CN3C4CCC3CN(c3ccc(-c5cc(F)c6c(c5)C(=O)N(C(C(=O)Nc5nccs5)c5ncn7c5CCC7)C6)cc3)C4)cc2)C(=O)N1` (stereo not drawn) [GT-06252, 2-(6,7-dihydro-5H-pyrrolo[1,2-c]imidazol-1-yl)-2-(6-(4-(8-(4-(2,6-dioxopiperidin-3-yl)benzyl)-3,8-diazabicyclo[3.2.1]octan-3-yl)phenyl)-4-fluoro-1-oxoisoindolin-2-yl)-N-(thiazol-2-yl)acetamide], 8.00 to 9.00.

For the next test, the target named is T1, human Cereblon WT GST-tagged protein (Homo sapiens, UniProt Q96SW2).
T1 construct: purchased CISBIO 64BDCRBNPEH
T1 sequence (Q96SW2 whole entry): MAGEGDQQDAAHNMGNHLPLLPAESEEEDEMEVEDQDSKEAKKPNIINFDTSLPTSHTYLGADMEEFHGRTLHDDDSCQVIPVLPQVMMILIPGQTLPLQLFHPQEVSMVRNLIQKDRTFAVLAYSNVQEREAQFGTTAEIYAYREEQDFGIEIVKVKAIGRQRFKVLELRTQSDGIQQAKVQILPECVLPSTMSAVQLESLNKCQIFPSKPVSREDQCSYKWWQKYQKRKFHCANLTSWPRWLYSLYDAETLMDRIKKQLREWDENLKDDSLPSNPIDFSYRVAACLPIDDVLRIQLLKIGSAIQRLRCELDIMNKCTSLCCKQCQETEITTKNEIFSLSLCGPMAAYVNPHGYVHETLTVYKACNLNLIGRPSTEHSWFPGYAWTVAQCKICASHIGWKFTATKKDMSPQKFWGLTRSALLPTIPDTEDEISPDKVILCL
The test can be described thus: CRBN binding, HTRF (CEREBLON BINDING kit). To be noted: Table II-2, CRBN binding screening, HTRF; at 0.5µM. In outline: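 Competitive HTRF: GST-tagged human WT Cereblon mixed with compound, Thalidomide-Re tracer and GST Eu antibody, incubated 3 h at room temperature. Signals read at 620 and 665 nm.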
As to `CNC(=O)c1ccccc1Nc1cc(Nc2cc(C)c(C3CCN(Cc4cccc(N5CCC(=O)NC5=O)c4)CC3)cc2OC(C)C)ncc1C(F)(F)F` [GT-07668, 2-((2-((4-(1-(3-(2,4-dioxotetrahydropyrimidin-1(2H)-yl)benzyl)piperidin-4-yl)-2-isopropoxy-5-methylphenyl)amino)-5-(trifluoromethyl)pyridin-4-yl)amino)-N-methylbenzamide], the “Inhibition rate (%) at 0.5µM” value was “a2 (20% < a2 ≤ 30%)”.

Staying with this test, now noted: Table II-2, CRBN binding screening, HTRF; at 0.5µM; read-out: Inhibition rate (%) at 0.5µM.
For the molecule `COc1cc(N2CCC(N3CCN(Cc4cc(N5CCC(=O)NC5=O)cnc4F)CC3)CC2)ccc1Nc1ncc(Cl)c(Nc2ccccc2P(C)(C)=O)n1` [GT-07759, 1-(5-((4-(1-(4-((5-chloro-4-((2-(dimethylphosphoryl)phenyl)amino)pyrimidin-2-yl)amino)-3-methoxyphenyl)piperidin-4-yl)piperazin-1-yl)methyl)-6-fluoropyridin-3-yl)dihydropyrimidine-2,4(1H,3H)-dione], the inhibition at 0.5 µM was in the range of 30 to 40%.

The same test, now with this note: Table II-2, CRBN binding screening, HTRF; at 2 µM.
For the molecule `CNC(=O)c1ccccc1Nc1cc(Nc2cc(C)c(C3CCN(Cc4cccc(N5CCC(=O)NC5=O)c4)CC3)cc2OC(C)C)ncc1C(F)(F)F` [GT-07668, 2-((2-((4-(1-(3-(2,4-dioxotetrahydropyrimidin-1(2H)-yl)benzyl)piperidin-4-yl)-2-isopropoxy-5-methylphenyl)amino)-5-(trifluoromethyl)pyridin-4-yl)amino)-N-methylbenzamide], the “Inhibition rate (%) at 2 µM” value is “a5 (53% < a5 ≤ 60%)”.

The test is the same for the next values; noted with them: Table II-2, CRBN binding screening, HTRF; at 2 µM; read-out: Inhibition rate (%) at 2 µM.
On to `COc1cc(N2CCC(N3CCN(Cc4cc(N5CCC(=O)NC5=O)cnc4F)CC3)CC2)ccc1Nc1ncc(Cl)c(Nc2ccccc2P(C)(C)=O)n1` [GT-07759, 1-(5-((4-(1-(4-((5-chloro-4-((2-(dimethylphosphoryl)phenyl)amino)pyrimidin-2-yl)amino)-3-methoxyphenyl)piperidin-4-yl)piperazin-1-yl)methyl)-6-fluoropyridin-3-yl)dihydropyrimidine-2,4(1H,3H)-dione], for which the inhibition at 2 µM is 53 to 60%.
